pIC50: −log10 of the molar value.
Key:
A549 = A549 assay: screening of cancer cell growth inhibiting compound; type: cell-based; conditions: Homo sapiens, 72 h; A549 cells, three days, WST-8; read-out: A549 IC50
Summary of the method: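 A549 cells (1×10^4/ml) in D-MEM with 10% FBS were pre-incubated one day at 37 °C, then exposed to compound dilutions for three further days. Viable cell number read by WST-8 (1–4 hours), absorbance 450 nm (reference 620 nm); inhibition calculated relative to untreated wells.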

TTK = target: T1, TTK (Homo sapiens, UniProt P33981); test: TTK assay: screening of TTK kinase activity suppressing action using p38 MAPK peptide; type: biochemical; conditions: p38 MAPK peptide substrate; read-out: TTK IC50
T1 sequence (P33981 1-857): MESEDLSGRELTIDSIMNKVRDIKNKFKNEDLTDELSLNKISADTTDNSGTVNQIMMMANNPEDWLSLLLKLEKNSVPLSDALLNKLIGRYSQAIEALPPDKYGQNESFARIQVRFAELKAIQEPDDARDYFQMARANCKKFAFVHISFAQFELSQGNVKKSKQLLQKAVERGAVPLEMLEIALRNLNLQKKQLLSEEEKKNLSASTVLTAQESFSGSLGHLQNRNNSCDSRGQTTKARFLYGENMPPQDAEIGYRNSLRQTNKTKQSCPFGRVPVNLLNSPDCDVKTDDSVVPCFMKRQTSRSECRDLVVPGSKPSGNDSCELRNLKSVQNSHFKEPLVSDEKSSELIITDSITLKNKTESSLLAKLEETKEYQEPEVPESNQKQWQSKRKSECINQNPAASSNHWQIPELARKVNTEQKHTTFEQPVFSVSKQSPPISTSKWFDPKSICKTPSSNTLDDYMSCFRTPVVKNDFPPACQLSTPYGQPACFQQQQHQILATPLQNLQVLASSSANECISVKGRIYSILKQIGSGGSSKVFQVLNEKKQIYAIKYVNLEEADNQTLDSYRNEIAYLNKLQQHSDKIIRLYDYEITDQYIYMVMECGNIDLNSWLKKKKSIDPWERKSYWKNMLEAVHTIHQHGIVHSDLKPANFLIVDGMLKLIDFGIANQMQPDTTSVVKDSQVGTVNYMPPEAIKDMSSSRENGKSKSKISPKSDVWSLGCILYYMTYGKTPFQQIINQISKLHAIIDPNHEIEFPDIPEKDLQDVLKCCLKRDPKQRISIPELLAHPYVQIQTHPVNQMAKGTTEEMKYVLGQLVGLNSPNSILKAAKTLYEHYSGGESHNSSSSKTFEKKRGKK
Summary of the method: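 TTK (4 μg/ml in enzyme solution) mixed with p38 MAPK peptide and ATP (each 60 μM in substrate solution) in Tris-HCl pH 7.5 with MgCl2, DTT, Na3VO4, β-glycerophosphate, BSA. Reaction aliquot captured on NeutrAvidin plate, detected with Eu-labelled anti-mouse IgG by time-resolved fluorescence; inhibition relative to no-compound signal.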

Compound | pIC50 (A549) | pIC50 (TTK)
CC(C)(C)CNc1cc(NC2CCCCC2)nn2c(-c3ccc(C(=O)NC4CC4)cc3)cnc12 [Example 2-135] | 6.30 to 7.30 | 8.02
O=C(NC1CC1)c1ccc(-c2cnc3c(NCCSCCO)cc(NC4CCCCC4)nn23)cc1 [Example 2-136] | 6.30 to 7.30 | 8.14
CCC(C)CNc1cc(NC2CCCCC2)nn2c(-c3ccc(C(=O)NC4CC4)cc3)cnc12 (centres unmarked) [Example 2-137] | 6.30 to 7.30 | 8.14
COCCCCNc1cc(NC2CCCCC2)nn2c(-c3ccc(C(=O)NC4CC4)cc3)cnc12 [Example 2-138] | 6.30 to 7.30 | 8.26
CC(C)CCNc1cc(NC2CCCCC2)nn2c(-c3ccc(C(=O)NC4CC4)cc3)cnc12 [Example 2-139] | 6.30 to 7.30 | 7.98
CCCNc1cc(NC2CCCCC2)nn2c(-c3ccc(C(=O)NC4CC4)cc3)cnc12 [Example 2-141] | 6.30 to 7.30 | 8.15
CCC(C)Nc1cc(NC2CCCCC2)nn2c(-c3ccc(C(=O)NC4CC4)cc3)cnc12 (centres unmarked) [Example 2-143] | 6.00 to 6.30 | 7.70
O=C(NC1CC1)c1ccc(-c2cnc3c(NCC(F)F)cc(NC4CCCCC4)nn23)cc1 [Example 2-144] | 6.30 to 7.30 | 8.46
O=C(NC1CC1)c1ccc(-c2cnc3c(NCC(F)(F)F)cc(NC4CCCCC4)nn23)cc1 [Example 2-145] | 6.30 to 7.30 | 8.52
O=C(NC1CC1)c1ccc(-c2cnc3c(NCC4CCS(=O)(=O)CC4)cc(NC4CCCCC4)nn23)cc1 [Example 2-146] | 6.00 to 6.30 | 8.42
O=C(NC1CC1)c1ccc(-c2cnc3c(NCc4cncs4)cc(NC4CCCCC4)nn23)cc1 [Example 2-147] | 6.30 to 7.30 | 8.54
Cn1cncc1CNc1cc(NC2CCCCC2)nn2c(-c3ccc(C(=O)NC4CC4)cc3)cnc12 [Example 2-148] | 6.00 to 6.30 | 8.41
Cn1cnc(CNc2cc(NC3CCCCC3)nn3c(-c4ccc(C(=O)NC5CC5)cc4)cnc23)c1 [Example 2-149] | 6.30 to 7.30 | 8.27
Cn1cc(CNc2cc(NC3CCCCC3)nn3c(-c4ccc(C(=O)NC5CC5)cc4)cnc23)cn1 [Example 2-150] | 6.30 to 7.30 | 8.42
O=C(NC1CC1)c1ccc(-c2cnc3c(NCc4cccs4)cc(NC4CCCCC4)nn23)cc1 [Example 2-151] | 6.30 to 7.30 | 8.51
O=C(NC1CC1)c1ccc(-c2cnc3c(NCc4ccco4)cc(NC4CCCCC4)nn23)cc1 [Example 2-152] | 6.30 to 7.30 | 8.44
O=C(NC1CC1)c1ccc(-c2cnc3c(NCC45CCN(CC4)CC5)cc(NC4CCCCC4)nn23)cc1 [Example 2-153] | 6.30 to 7.30 | 8.12
O=C(NC1CC1)c1ccc(-c2cnc3c(NCc4ccccn4)cc(NC4CCCCC4)nn23)cc1 [Example 2-154] | 6.30 to 7.30 | 8.30
O=C(NC1CC1)c1ccc(-c2cnc3c(NCc4ccncc4)cc(NC4CCCCC4)nn23)cc1 [Example 2-155] | 6.30 to 7.30 | 8.39
O=C(NC1CC1)c1ccc(-c2cnc3c(NCc4cccnc4)cc(NC4CCCCC4)nn23)cc1 [Example 2-156] | 6.30 to 7.30 | 8.36
O=C(NC1CC1)c1ccc(-c2cnc3c(NCc4ccoc4)cc(NC4CCCCC4)nn23)cc1 [Example 2-157] | 6.30 to 7.30 | 8.47
Cc1cc(CNc2cc(NC3CCCCC3)nn3c(-c4ccc(C(=O)NC5CC5)cc4)cnc23)no1 [Example 2-158] | 6.30 to 7.30 | 8.49
Cn1ccc(CNc2cc(NC3CCCCC3)nn3c(-c4ccc(C(=O)NC5CC5)cc4)cnc23)n1 [Example 2-159] | 6.30 to 7.30 | 7.58
O=C(NC1CC1)c1ccc(-c2cnc3c(NCc4nccs4)cc(NC4CCCCC4)nn23)cc1 [Example 2-160] | 6.30 to 7.30 | 8.51
CC(C)ONc1cc(NC2CCCCC2)nn2c(-c3ccc(C(=O)NC4CC4)cc3)cnc12 [Example 2-161] | 6.00 to 6.30 | 8.25
